{"source": "patent US20250320471A1", "about": "“Method for Producing Compounds, Method for Producing Compound Library, Compound Library, and Screening Method” (The University of Tokyo, priority 2021, published 2025)", "key": {"LimF [1]": {"system": "LimF", "test": "FIT-LimF system: one-pot in vitro expression and prenylation of teMPs", "type": "biochemical, Limnothrix sp. CACIAM 69d", "settings": "16 hours; for Modification Efficiency % (Tyr prenylation): FIT-LimF system, 20 μM LimF", "text": "First, teMP (teLimE2) mimicking the sequence of bcLimE2 was designed and expressed by genetic code reprogramming using customized cell-free translation, and the so-called flexible in vitro translation (FIT) system (Goto, Y, Katoh, T. & Suga, Flexizymes for genetic code reprogramming. Nat. Protoc., 6, 779-790 (2011)). Specifically, the AUG start codon was reprogrammed with N-chloroacetyl-D-phenylalanine (^ClAcD-F), a linear precursor having a chloroacetyl group (ClAc group) at the N-terminal was expressed, and a thioether bond was formed by a spontaneous ring-closing SN2 reaction with a downstream Cys thiol (FIG. 7a). Note that the FIT system had the composition described below.\nteLimE2 expressed in vitro was incubated for 16 hours at 25° C. in the presence of 100 μM LimF and analyzed by LC-MS. […] The in vitro translation system conjugated with LimF will be referred to hereinafter as the FIT-LimF system.\n38 types of teLimE2 variants in which the His-1 and His+1 positions were substituted with 19 types of proteinogenic amino acid other than Cys were designed and then expressed and modified in the FIT-LimF system. The reaction results were analyzed by LC-MS. In the present experiment, the prenylation process was performed under intentionally poor modification efficiency conditions by using a low LimF concentration (10 μM). This allowed for more accurate investigation of the influence of His−1 and His+1 amino acids.\nThe following series of experiments examined whether teMPs of various ring sizes were tolerated by LimF. Thirteen teMP variants with different ring sizes (4 to 18 residues) and a preferred local sequence motif (Ser-His-Ala/Cys) were designed.\nNext, it was shown that LimF can modify teMPs having a variety of random sequences. Five teMPs composed of random sequences were expressed and modified using the FIT-LimF system (LimF concentration: 10 μM) (FIG. 7e). […]"}, "PagF [2]": {"system": "PagF", "settings": "Tyr C5 O-prenylation; cited from earlier work"}, "GLP1R": {"biological_target": "T1, GLP1R (Homo sapiens, UniProt P43220)", "T1 construct": "host or cells: CHO-K1", "T1 sequence (P43220 24-463)": "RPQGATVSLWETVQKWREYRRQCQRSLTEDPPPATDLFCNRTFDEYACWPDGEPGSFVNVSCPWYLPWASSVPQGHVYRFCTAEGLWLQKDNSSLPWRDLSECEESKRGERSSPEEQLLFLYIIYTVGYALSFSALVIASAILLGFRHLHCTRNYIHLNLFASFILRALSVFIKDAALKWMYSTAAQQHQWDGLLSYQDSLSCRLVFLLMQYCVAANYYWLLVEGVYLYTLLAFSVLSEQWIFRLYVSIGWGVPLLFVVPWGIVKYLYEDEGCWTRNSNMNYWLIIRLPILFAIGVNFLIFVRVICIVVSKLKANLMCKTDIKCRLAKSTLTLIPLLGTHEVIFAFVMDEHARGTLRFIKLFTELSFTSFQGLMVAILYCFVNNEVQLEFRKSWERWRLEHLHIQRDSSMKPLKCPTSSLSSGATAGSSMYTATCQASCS", "test": "cAMP production activation test (cAMP Hunter eXpress GLP1R CHO-K1 GPCR assay kit)", "type": "cell-based", "settings": "GLP1R CHO-K1 cells", "protocol": "The concentration range of the used peptides was from 0.33 μM to 20 nM."}, "Vib-PT": {"system": "Vib-PT", "settings": "Aromatic C5 O-prenylation; cited from earlier work"}, "PagF [3]": {"system": "PagF", "settings": "Tyr C5 O-prenylation; cited from earlier work", "remark": "listed apart in the source"}, "LynF [4]": {"system": "LynF", "settings": "Tyr C5 O-prenylation; cited from earlier work"}, "AcyF": {"system": "AcyF", "settings": "Trp C5 N-prenylation; cited from earlier work"}, "FtmPT2": {"biological_target": "T2, FtmPT2 (Aspergillus fumigatus, UniProt Q4WAX1)", "T2 sequence (Q4WAX1 1-427)": "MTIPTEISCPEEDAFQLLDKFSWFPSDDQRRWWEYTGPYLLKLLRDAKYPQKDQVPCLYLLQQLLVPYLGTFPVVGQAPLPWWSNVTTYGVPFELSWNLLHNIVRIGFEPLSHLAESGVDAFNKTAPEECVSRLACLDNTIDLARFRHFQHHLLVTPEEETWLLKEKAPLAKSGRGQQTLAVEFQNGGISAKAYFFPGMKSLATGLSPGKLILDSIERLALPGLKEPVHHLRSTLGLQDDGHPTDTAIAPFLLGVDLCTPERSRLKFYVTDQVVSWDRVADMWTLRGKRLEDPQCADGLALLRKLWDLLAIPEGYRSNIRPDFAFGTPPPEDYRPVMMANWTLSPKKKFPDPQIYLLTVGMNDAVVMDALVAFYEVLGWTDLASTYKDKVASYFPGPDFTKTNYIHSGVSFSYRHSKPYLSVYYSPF", "settings": "Aromatic C5 N-prenylation; cited from earlier work"}, "LimF [5]": {"system": "LimF", "test": "His-prenylation of low molecular weight compounds, peptides and proteins by LimF", "type": "biochemical, Limnothrix sp. CACIAM 69d", "settings": "125 μM substrate, 100 μM LimF, 2 mM GPP, 20 hours, standard conditions", "text": "Next, various low molecular weight compounds, peptides, and proteins, including various compounds that have already been approved as pharmaceuticals, were subjected to His-prenylation facilitated by LimF."}, "Serum stability test": {"test": "Serum stability test", "settings": "5 μM peptide in human serum at 37° C.", "experimental": "After various incubation times, a sample of 4 μL was taken from the reaction system, and the reaction was stopped by mixing with an equal amount (4 L) of methanol. After centrifugation at 13,000 rpm for 5 minutes, the supernatant was collected, and after adding 4 times the amount of 1% TFA-aqueous solution, centrifugation was performed for an additional 5 minutes. 1 μL of the obtained supernatant was measured by LC/MS, and the amount of each remaining peptide was quantified."}, "DPP-4": {"biological_target": "DPP-4 (Homo sapiens, UniProt P27487)", "sequence (P27487 whole entry, species assumed)": "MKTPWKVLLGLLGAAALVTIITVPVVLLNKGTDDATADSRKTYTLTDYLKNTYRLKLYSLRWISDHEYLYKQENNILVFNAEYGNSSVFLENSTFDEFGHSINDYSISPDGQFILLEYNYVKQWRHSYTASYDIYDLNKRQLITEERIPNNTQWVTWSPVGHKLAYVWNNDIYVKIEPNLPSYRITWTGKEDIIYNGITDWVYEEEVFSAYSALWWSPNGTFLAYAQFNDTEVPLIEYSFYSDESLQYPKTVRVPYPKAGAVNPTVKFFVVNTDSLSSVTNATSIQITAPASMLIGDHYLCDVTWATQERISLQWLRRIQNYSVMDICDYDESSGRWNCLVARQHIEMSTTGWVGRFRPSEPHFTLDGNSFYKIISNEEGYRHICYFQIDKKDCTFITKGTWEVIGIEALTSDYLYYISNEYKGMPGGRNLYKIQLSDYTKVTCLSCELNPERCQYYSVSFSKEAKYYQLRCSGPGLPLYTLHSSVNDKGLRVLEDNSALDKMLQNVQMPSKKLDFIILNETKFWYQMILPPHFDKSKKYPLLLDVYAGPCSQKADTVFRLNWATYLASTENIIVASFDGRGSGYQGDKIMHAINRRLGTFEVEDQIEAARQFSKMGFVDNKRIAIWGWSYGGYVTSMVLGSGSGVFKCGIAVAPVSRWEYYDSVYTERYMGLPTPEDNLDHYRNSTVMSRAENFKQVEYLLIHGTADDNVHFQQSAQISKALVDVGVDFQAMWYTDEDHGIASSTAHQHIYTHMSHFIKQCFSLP", "test": "DPP-4 digestion test", "settings": "5 μM peptide, Tris-Cl pH 8.0, 2.5 ng/L DPP-4, 37° C.", "experimental": "After various incubation times, a sample of 4 μL was taken from the reaction system, and the reaction was stopped by adding 4 times the amount (16 L) of a 1% TFA-aqueous solution. After centrifugation at 13,000 rpm for 5 minutes, 1 μL of the supernatant was measured by LC/MS, and the amount of each remaining peptide was quantified."}, "LynF [6]": {"system": "LynF", "settings": "Tyr C5 O-prenylation; cited from earlier work", "remark": "listed apart in the source"}, "LimF [7]": {"system": "LimF", "test": "LimF prenylation of His monomers and His-containing dipeptides", "type": "biochemical, Limnothrix sp. CACIAM 69d", "settings": "prenyl group donor GPP; 100 μM LimF, 20 hours", "protocol": "The optimization conditions were as follows: 1 mM GPP, 40 mM MgCl2, 1 mM dithiothreitol (DTT), pH 7.2, and reaction temperature 25° C. The reaction conditions described above were used below except where otherwise stated.\n• A reaction was performed for 20 hours with 100 μM LimF.\nFurthermore, when a prenylation reaction facilitated by 20 μM LimF was applied not only to Ac-AH-NH2, but also to various His-containing dipeptides, it became clear that a His prenylation reaction facilitated by LimF progressed for various His-containing dipeptides (FIG. 6)."}, "LimF [8]": {"system": "LimF", "test": "Prenylation of high molecular weight proteins by LimF (MALDI-TOF-MS)", "type": "biochemical, Limnothrix sp. CACIAM 69d", "settings": "10 μM protein, 10 μM LimF, 2 mM GPP, 20 hours", "protocol": "Moreover, His-prenylation by LimF was also performed for two types of high molecular weight proteins (acetylated bovine-derived albumin (Ac-BSA (Wako Pure Chemical Industries)) and horse-derived glutathione-S-transferase (GST (Sigma-Aldrich Japan))). Specifically, 10 μM Ac-BSA or 10 μM GST was reacted for 20 hours in the presence of 10 μM LimF and 2 mM GPP under previously optimized standard conditions. After desalting the reaction solution after the reaction by solid phase extraction (SPE C-TIP (Nikkyo Technos)), using sinapinic acid as a matrix, analysis was performed using a matrix-assisted laser desorption ionization-time-of-flight mass spectrometer (MALDI-TOF-MS, ultrafleXtreme manufactured by Bruker Daltonics)."}, "bcLimE2": {"biological_target": "T3, bcLimE2", "T3 chain": "RYPHEEIP"}, "teR6-H5A": {"biological_target": "T4, teR6-H5A", "T4 chain": "FRGNATYIPC"}}, "note": "Read-outs that look alike come from different tables or passages of the source."}
{"molecule": "DHis", "values": [{"measurement": "prenylation by LimF in FIT-LimF system", "setting": "LimF [1]; 100 μM LimF, 25° C., LC-MS", "value": "favorable substrates"}]}
{"molecule": "cyclo[INPYLYP] (head-to-tail cyclized)", "values": [{"measurement": "Kcat", "setting": "PagF [2]", "value": 0.123, "unit": "s⁻¹"}, {"measurement": "Km", "setting": "PagF [2]", "value": 0.00022, "unit": "mM"}]}
{"molecule": "FAEGTFTSDVSSYLEGGAAKEFIAWLVHGR [GLP-1_H7F/K34H]", "values": [{"measurement": "cAMP production activation ability", "setting": "GLP1R", "value": "activity comparable to that of natural GLP-1"}]}
{"molecule": "OCc1ccc(O)cc1", "note": "[4-hydroxy-benzenemethanol]", "values": [{"measurement": "Kcat", "setting": "Vib-PT", "value": 0.000783, "unit": "s⁻¹"}, {"measurement": "Km", "setting": "Vib-PT", "value": 2.05, "unit": "mM"}]}
{"molecule": "tecyclo [y I T N I A Y D P C] (ITNIAYDPC; not fully specified; cyclized with D-Tyr)", "values": [{"measurement": "Modification Efficiency % (Tyr prenylation)", "setting": "LimF [1]", "value": 1, "unit": "%"}]}
{"molecule": "CC(C)(C)OC(=O)N[C@@H](Cc1ccc(O)cc1)C(=O)O", "note": "[N-boc-L-Tyr]", "values": [{"measurement": "Kcat", "setting": "PagF [3]", "value": 0.183, "unit": "s⁻¹"}, {"measurement": "Km", "setting": "PagF [3]", "value": 6.2, "unit": "mM"}, {"measurement": "Kcat", "setting": "LynF [4]", "value": 0.0177, "unit": "s⁻¹"}, {"measurement": "Km", "setting": "LynF [4]", "value": 14, "unit": "mM"}]}
{"molecule": "cyclo[TSQIWGSPVP] (head-to-tail cyclized)", "values": [{"measurement": "Kcat", "setting": "AcyF", "value": 0.158, "unit": "s⁻¹"}, {"measurement": "Km", "setting": "AcyF", "value": 3.32, "unit": "mM"}]}
{"molecule": "COc1ccc2c3c([nH]c2c1)[C@H](C=C(C)C)N1C(=O)[C@@H]2CCCN2C(=O)[C@]1(O)[C@H]3O", "note": "[12,13-dihydroxyfumitremorgin C]", "values": [{"measurement": "Kcat", "setting": "FtmPT2", "value": 0.03, "unit": "s⁻¹"}, {"measurement": "Km", "setting": "FtmPT2", "value": 0.096, "unit": "mM"}]}
{"molecule": "tecyclo [y I T N I T Y D P C] (ITNITYDPC; not fully specified; cyclized with D-Tyr)", "values": [{"measurement": "Modification Efficiency % (Tyr prenylation)", "setting": "LimF [1]", "value": 21, "unit": "%"}]}
{"molecule": "CC[C@H](C)[C@H](NC(=O)C(Cc1ccccc1)NC(=O)[C@H](CCC(=O)O)NCCCCN[C@@H](CCCCN)C(=O)C(=O)[C@H](C)NC(=O)C(CCC(N)=O)NC(=O)CNC(=O)C(CCC(=O)O)NC(=O)[C@H](CC(C)C)NC(=O)C(Cc1ccc(O)cc1)NC(=O)[C@H](CO)NC(=O)C(CO)NCCCCN[C@H](C(=O)C(=O)[C@H](CC(N)=O)NC(=O)C(CO)NC(=O)[C@@H](NC(=O)C(Cc1ccccc1)NC(=O)[C@@H](NC(=O)CNC(=O)[C@H](CCC(=O)O)NC(=O)C(C)NC(=O)[C@@H](N)Cc1cnc[nH]1)[C@@H](C)O)[C@@H](C)O)C(C)C)C(=O)NC(C)C(=O)N[C@@H](Cc1c[nH]c2ccccc12)C(=O)NC(CC(C)C)C(=O)N[C@H](C(=O)NC(CCCCN)C(=O)NCC(=O)C(=O)[C@H](CCCNC(=N)N)NN)C(C)C", "note": "(stereo partly shown) [GLP-1, HAEGTFTSDVSSYLEGGAAKEFIAWLVKGR]", "values": [{"measurement": "His-prenylation efficiency (LC/MS)", "setting": "LimF [5]", "value": 75, "unit": "%"}, {"measurement": "cAMP production activation ability", "setting": "GLP1R", "value": "strongly activated cAMP production"}, {"measurement": "serum stability (remaining peptide by LC/MS)", "setting": "Serum stability test", "value": "rapid degradation"}, {"measurement": "stability in DPP-4 digestion test (remaining peptide by LC/MS)", "setting": "DPP-4", "value": "rapid degradation"}]}
{"molecule": "cyclo[APMPPYP] (head-to-tail cyclized)", "values": [{"measurement": "Kcat", "setting": "LynF [6]", "value": 0.00367, "unit": "s⁻¹"}, {"measurement": "Km", "setting": "LynF [6]", "value": 4.2, "unit": "mM"}]}
{"molecule": "Ac-AH-NH2 [Ac—AH—NH2]", "values": [{"measurement": "Modification Efficiency %", "setting": "LimF [7]", "value": ">99", "unit": "%"}]}
{"molecule": "Ac-BSA: acetylated bovine-derived albumin", "values": [{"measurement": "number of prenylations by LimF (mass spectrum)", "setting": "LimF [8]", "value": "two locations"}]}
{"molecule": "N[C@@H](Cc1c[nH]cn1)C(=O)O", "note": "[Free His, H-His-OH]", "values": [{"measurement": "Modification Efficiency %", "setting": "LimF [7]", "value": "34.9 ± 0.7", "unit": "%"}]}
{"molecule": "O=C(N[C@@H](Cc1cnc[nH]1)C(=O)O)OCC1c2ccccc2-c2ccccc21", "note": "[Fmoc-His, Fmoc-His-OH]", "values": [{"measurement": "Modification Efficiency %", "setting": "LimF [7]", "value": "15.2 ± 0.8", "unit": "%"}]}
{"molecule": "LimF (wild-type) (protein) MKKRKSSKVFKSTIAPEEKLRYIGNHKQAFDIEPLYPLALFEEFVATTGDCIIECSGKIKQDQLYPARIDLQFSDKHHFHNIHTSIDFLKRAASRTDVNLNLDILATFLAGNFDYSKVQNILAGIDLRQNLGESKLKLFIRIGDYPAKMAVAKHLCNITPESEAMLRSDTLHIGFDFYLDGRSAIELYPELKKDEFNHPFIYNQLKTILSPEALKPLPLCNLFGIGLSPANEANVLYYHLENIEDFLSYFPINDTARRVHDFYLQQEGSRRMWVALSESEMKAGRINNVNLYYSKAFTSQNP", "values": [{"measurement": "Km (mM), steady-state kinetics of His-prenylation with GPP", "setting": "bcLimE2", "value": 0.31, "unit": "mM"}, {"measurement": "Km (mM), steady-state kinetics of Tyr-prenylation with GPP", "setting": "teR6-H5A", "value": 7.3, "unit": "mM"}]}
